This is an account of results in ChEMBL document CHEMBL4823280, “Efficient Synthesis of Icetexane Diterpenes and Apoptosis Inducing Effect by Upregulating BiP-ATF4-CHOP Axis in Colorectal Cells” (J Nat Prod, 2021).

A word on the IC50: it is the concentration that gives 50% inhibition.

The subject of one data set is COLO 205. The data set can be described thus: Cytotoxicity against human COLO 205 cells assessed as reduction in cell viability measured after 48 hrs by MTT assay. In kind it is functional, cell-based. Conditions: COLO 205, 48 h. (In general: Tetrazolium assays rely on reduction of a dye to a coloured formazan, in cell work by metabolically active cells.)
Data set [1] concerns HCT-116. The data set can be described thus: Cytotoxicity against human HCT-116 cells assessed as reduction in cell viability measured after 48 hrs by MTT assay. Format: functional, cell-based. Conditions: HCT-116, 48 h.
The subject of another data set is Caco-2. The experiment in a line: Cytotoxicity against human Caco-2 cells assessed as reduction in cell viability measured after 48 hrs by MTT assay. Format: functional, cell-based. Conditions: Caco-2, 48 h.
The test system of data set [2] is HCT-116. The experiment in a line: Induction of ER stress in human HCT-116 cells assessed as colocalization of BiP with ATF4 at 20 uM measured after 12 hrs by immunofluorescence staining analysis. Format: functional, cell-based.
The test system of data set [3] is HCT-116. The experiment in a line: Induction of apoptosis in human HCT-116 cells assessed as late apoptotic cells at 10 uM measured after 24 hrs by Annexin V-FITC/PI staining based flow cytometry analysis (Rvb= 2.89%). Format: functional. On the technique in general: Flow cytometry measures light scatter and fluorescence of single cells or particles in a stream.

Data set [4] can be described thus: Stability of the compound in human HCT-116 cells assessed as Demethylsalvicanol-Quione formation measured after 72 hrs by HPLC analysis. In kind it is ADME, cell-based. Particulars: hct-116, 72 h.
The subject of data set [5] is HCT-116. The experiment in a line: Induction of apoptosis in human HCT-116 cells assessed as viable cells at 5 uM measured after 24 hrs by Annexin V-FITC/PI staining based flow cytometry analysis (Rvb= 88.45%). In kind it is functional. Conditions: read-out: Activity.
The subject of data set [6] is HCT-116. The data set can be described thus: Induction of ER stress in human HCT-116 cells assessed as upregulation of ATF4 expression at 5 to 20 uM measured after 6 hrs by western blotting analysis. In kind it is functional, cell-based. Particulars: dose 5-20 µM.
For data set [7], the system named is HCT-116. The data set can be described thus: Induction of apoptosis in human HCT-116 cells assessed as late apoptotic cells at 5 uM measured after 24 hrs by Annexin V-FITC/PI staining based flow cytometry analysis (Rvb= 2.89%). Format: functional.
For data set [8], the system named is HCT-116. The experiment in a line: Induction of ER stress in human HCT-116 cells assessed as increase in BiP protein expression measured after 6 hrs by western blotting analysis. Format: functional, cell-based. Particulars: dose 5-20 µM. (In western blotting, separated proteins are transferred to a membrane and probed.)
Data set [9] deals with HCT-116. The experiment in a line: Induction of ER stress in human HCT-116 cells assessed as increase in BiP nuclear translocation at 2.5 to 10 uM measured after 6 hrs by DAPI based immunostaining analysis. In kind it is functional, cell-based. Particulars: dose 2.5-10 µM.
Data set [10] concerns HCT-116. The data set can be described thus: Inhibition of colony formation in human HCT-116 cells at 1.25 to 10 uM incubated for 14 days by crystal violet staining based analysis. Particulars: dose 1.25-10 µM, time 14.0 day. In kind it is functional, cell-based.
Data set [11] relates to HCT-116. The experiment in a line: Induction of apoptosis in human HCT-116 cells assessed as viable cells at 10 uM measured after 24 hrs by Annexin V-FITC/PI staining based flow cytometry analysis (Rvb= 88.45%). Format: functional. Particulars: read-out: Activity.
For data set [12], the system named is HCT-116. The experiment in a line: Induction of apoptosis in human HCT-116 cells assessed as early apoptotic cells at 5 uM measured after 24 hrs by Annexin V-FITC/PI staining based flow cytometry analysis (Rvb= 7.48%). In kind it is functional.
The test system of data set [13] is HCT-116. The data set can be described thus: Induction of apoptosis in human HCT-116 cells assessed as early apoptotic cells at 10 uM measured after 24 hrs by Annexin V-FITC/PI staining based flow cytometry analysis (Rvb= 7.48%). In kind it is functional.
Data set [14] concerns HCT-116. The experiment in a line: Induction of apoptosis in human HCT-116 cells assessed as necrotic cells at 5 uM measured after 24 hrs by Annexin V-FITC/PI staining based flow cytometry analysis (Rvb= 1.18%). Format: functional.
Data set [15] deals with HCT-116. The experiment in a line: Induction of ER stress in human HCT-116 cells assessed as upregulation of CHOP expression at 5 to 20 uM measured after 6 hrs by western blotting analysis. Format: functional, cell-based. Conditions: dose 5-20 µM.
Data set [16] concerns HCT-116. The data set can be described thus: Induction of apoptosis in human HCT-116 cells assessed as necrotic cells at 10 uM measured after 24 hrs by Annexin V-FITC/PI staining based flow cytometry analysis (Rvb= 1.18%). Format: functional.

Structures are written as SMILES. The source made the active and inactive calls. The calls are words filed in the database; no cut-off is given here. Where only a bound is given, the exact number is not on record here.

Consider `CC(=O)Oc1c(C(C)C)cc2c(c1OC(C)=O)C[C@@]13O[C@@H]1CCC(C)(C)[C@@H]3CC2`, for which the half-inhibitory concentration (IC50) with COLO 205 was found to be 7.52 µM; with HCT-116 [1], 11.1 µM; with Caco-2, 13.8 µM.

Take `CC(C)c1cc2c(c(O)c1O)C[C@@]1(O)CCCC(C)(C)[C@@H]1CC2`: the IC50 in the data set on COLO 205 is 11.2 µM; in the data set on HCT-116 [1], 18.8 µM; in the data set on Caco-2, 3.07 µM.

As for `CC(C)c1cc2c(c(O)c1O)CC1=CCCC(C)(C)[C@@H]1CC2`, the 50% inhibitory concentration (IC50) in the data set with COLO 205 was greater than 20.9 µM; in the data set with HCT-116 [1], greater than 20.9 µM; in the data set on Caco-2, 13.7 µM.

As to `CC(C)c1cc2c(c(O)c1O)C[C@@]13CCCC(C)(C)[C@@H]1C[C@@H]2O3` [BRUSSONOL], the IC50 in the data set with COLO 205, in the data set with HCT-116 [1] and with Caco-2 was greater than 20.2 µM in each case.

Turning to `CC(C)C1=CC2=C(C[C@@]34CCCC(C)(C)[C@@H]3C[C@@H]2O4)C(=O)C1=O`, the IC50 was 10.4 µM in the data set on COLO 205, 13.3 µM in the data set on HCT-116 [1] and 3.86 µM with Caco-2.

In the case of `CC(C)C1=CC2=C(C[C@@]3(O)CCCC(C)(C)[C@@H]3CC2)C(=O)C1=O`, the concentration for half-maximal inhibition (IC50) with COLO 205 was 3.18 µM; with HCT-116 [1], 2.93 µM; in the data set on Caco-2, 2.71 µM.

In the case of `CC(C)c1cc2c(c3c1O[C@@]1(C(C)C)C(=O)C(=O)C4=C(CC[C@H]5C(C)(C)CCC[C@]5(O)C4)[C@H]1O3)C[C@@]1(O)CCCC(C)(C)[C@@H]1CC2`, the outcome with HCT-116 [2], in the data set with HCT-116 [6], with HCT-116 [9] and with HCT-116 [15] was Active. The Activity was 19.84% with HCT-116 [3]; 16.43% in the data set with HCT-116 [7]; “Dose-Dependent Effect” in the data set with HCT-116 [8]; 14.73% in the data set with HCT-116 [12]; 13.38% with HCT-116 [13]; 5.28% in the data set with HCT-116 [14]. The Activity with HCT-116 [16] was determined as 7.97%. Besides, the Stabilty entry in [4] is given as “Stable”. Also, the viability at 5 µM in the data set on HCT-116 [5] was 63.6%. Moreover, the IC50 turned out to be 3.39 µM in the data set with COLO 205, 2.7 µM with HCT-116 [1] and 2.69 µM in the data set with Caco-2. The inhibition result in the data set on HCT-116 [10] was “Active”. Besides, the viability at 10 µM in the data set with HCT-116 [11] is 58.8%.

Regarding `CC(C)c1cc2c(c(O)c1O)C=C1C=CCC(C)(C)[C@@H]1CC2`, the figures for the 50% inhibitory concentration (IC50) with COLO 205, in the data set with HCT-116 [1] and in the data set with Caco-2 were 7.81 µM, 10.6 µM and 7.2 µM, respectively.

As to `CC(=O)Oc1c(C(C)C)cc2c(c1OC(C)=O)CC1=CCCC(C)(C)[C@@H]1CC2`, the results for the half-inhibitory concentration (IC50) in the data set on COLO 205, in the data set with HCT-116 [1] and with Caco-2 were 18.5 µM, 18.6 µM and 10.4 µM, respectively.

For `O=c1[nH]cc(F)c(=O)[nH]1` [FLUOROURACIL], the IC50 in the data set on COLO 205 was 5.29 µM; with HCT-116 [1], 7.38 µM; with Caco-2, 7.77 µM.
